EPA's ToxValDB 9.5
Several values for one entry are separate records, joined by “and”; a condition that tells them apart may be missing. Equal entries are not always repeated.

System: Rattus norvegicus
Details: inhalation; for NEL / LEL: Crl:CD(SD) BR
[1] = chronic, duration: 2 years, F, Crl:CD BR, Developmental: Whole Body: Survival + General Toxicity: Whole Body: Body Weight Change + Hepatic: Liver: Liver Histopathology + Hepatic: …
[2] = chronic, duration: 2 years, F, Blood: Eosinophils + Blood: Monocytes
[3] = chronic, duration: 2 years, F, Blood: Sorbitol Dehydrogenase (SDH), Blood
[4] = chronic, duration: 2 years, F, Liver: Liver Weight, Absolute
[5] = chronic, duration: 2 years, F, Mammary Gland: Mammary Gland Fibroadenoma
[6] = chronic, duration: 2 years, M, Crl:CD BR, Developmental: Whole Body: Survival + General Toxicity: Whole Body: Body Weight Change + Hepatic: Liver: Focal Liver Necrosis + Hepatic: …
[7] = chronic, duration: 2 years, M, Blood: Monocytes + Liver: Aspartate Aminotransferase (AST), Blood
[8] = chronic, duration: 2 years, M, Heart: Heart Weight, Absolute + Liver: Focal Liver Necrosis + Lung: Cholesterol Cleft/Granuloma in Lung
[9] = chronic, duration: 2 years, M, Kidney: Renal Tubular Pigment + Whole Body: Body Weight Change + Whole Body: Terminal Body Weight, Absolute
[10] = chronic, duration: 2 years, M, Kidney: Urobilinogen, Urine
[11] = reproduction developmental, duration: 9 days, F, Crl: CD BR, generation: P0, P0: General Toxicity: Whole Body: Maternal Body Weight Change + P0: General Toxicity: Whole Body: Mortality + P0: Nervous: Whole Body: …
[12] = reproduction developmental, duration: 9 days, F, Crl:CD BR, generation: P0, P0: Developmental: Uterus: Implantation + P0: Developmental: Uterus: Post-Implantation Loss + P0: Developmental: Uterus: Pre-Implantation …
[13] = reproduction developmental, duration: 9 days, F, Crl:CD BR, generation: P0, P0: Developmental: Uterus: Post-Implantation Loss + P0: Developmental: Uterus: Resorptions, Mean/Litter + P0: General Toxicity: Whole Body: …
[14] = reproduction developmental, duration: 9 days, F, generation: P0, P0: Ovary: Corpora Lutea
[15] = reproduction developmental, duration: 9 days, F, generation: P0, P0: Whole Body: Clinical Observations + P0: Whole Body: Maternal Body Weight Change
[16] = reproduction developmental, duration: 9 days, F, generation: P0, P0: Whole Body: Lethargic
[17] = subchronic, duration: 90 days, F, Crl:CD BR, General Toxicity: Whole Body: Body Weight Change + General Toxicity: Whole Body: Clinical Observations + Hepatic: Liver: Alkaline …
[18] = subchronic, duration: 90 days, F, Crl:CD BR, Nervous: Brain: Brain Weight, Absolute + Nervous: Brain: Brain Weight, Relative + Whole Body: Whole Body: Functional Observation Battery (…
[19] = subchronic, duration: 90 days, F, Liver: Alkaline Phosphatase (ALP), Blood
[20] = subchronic, duration: 90 days, M, Crl:CD BR, General Toxicity: Whole Body: Body Weight Change + General Toxicity: Whole Body: Clinical Observations + Hepatic: Liver: Liver Weight, …
[21] = subchronic, duration: 90 days, M, Crl:CD BR, Nervous: Brain: Brain Weight, Absolute + Nervous: Brain: Brain Weight, Relative + Whole Body: Whole Body: Functional Observation Battery (…
[22] = subchronic, duration: 90 days, M, Blood: Triglycerides (TRIG), Blood + Whole Body: Function Observation Battery (FOB)

FC(Cl)C(F)(F)F (configuration not stated) [2-Chloro-1,1,1,2-tetrafluoroethane]
55800 mg/m3: NOAEL [1] | LEL [2] | NEL [3] | LEL [4] | NEL [5] | NOAEL [6] | LEL [7] | NEL [8] | LEL [9] | NEL [10] | NOAEL [11] | NEL [16]
27900 mg/m3: LEL (developmental, duration: 9 days, M/F, generation: F1, F1: Whole Body: Pup Weight Relative to Litter) | NOAEL [12] | NEL [14] | LEL (reproduction developmental, duration: 9 days, F, generation: P0, P0: Uterus: Implantation) | NOAEL [18] | NOAEL [21] | NEL [22]
27900 mg/m3 and 83700 mg/m3: NOAEL (developmental, duration: 9 days, M/F, Crl:CD BR, generation: F1, F1: Developmental: Head: Head Abnormalities + F1: Developmental: Whole Body: External Abnormalities + F1: Developmental: Whole Body: Live …)
83700 mg/m3: LOAEL [12] | NOAEL [13] | LEL [14] | NEL [15] | LOAEL (subchronic, duration: 90 days, F, Crl:CD BR, Cardiovascular: Heart: Heart Weight, Absolute + Cardiovascular: Heart: Heart Weight, Relative + Endocrine: Adrenal: Adrenal Gland Weight, …) | NOAEL [17] | LOAEL [18] | NEL [19] | LOAEL (subchronic, duration: 90 days, M, Crl:CD BR, Cardiovascular: Heart: Heart Weight, Absolute + Cardiovascular: Heart: Heart Weight, Relative + Endocrine: Adrenal: Adrenal Gland Weight, …) | NOAEL [20] | LOAEL [21] | LEL [22]
279000 mg/m3: LOAEL (chronic, duration: 2 years, F, Crl:CD BR, Cardiovascular: Aorta: Aorta Histopathology + Cardiovascular: Heart: Heart Histopathology + Cardiovascular: Heart: Heart Weight, Absolute + …) | LOAEL [1] | NEL (chronic, duration: 2 years, F, Adrenal: Adrenal Gland Histopathology + Adrenal: Adrenal Gland Weight, Absolute + Aorta: Aorta Histopathology + Brain: Brain Histopathology…) | NEL (chronic, duration: 2 years, F, Blood: Abnormal Lymphocytes + Blood: Bands + Blood: Basophils + Blood: Calcium (CA), Blood + Blood: Globulin (G), Blood + Blood: Glucose (…) | LEL [3] | LEL [5] | LOAEL (chronic, duration: 2 years, M, Crl:CD BR, Cardiovascular: Aorta: Aorta Histopathology + Cardiovascular: Heart: Heart Histopathology + Cardiovascular: Heart: Heart Weight, Absolute + …) | LOAEL [6] | NEL (chronic, duration: 2 years, M, Adrenal: Adrenal Gland Histopathology + Adrenal: Adrenal Gland Weight, Absolute + Aorta: Aorta Histopathology + Brain: Brain Histopathology…) | NEL (chronic, duration: 2 years, M, Blood: Abnormal Lymphocytes + Blood: Bands + Blood: Basophils + Blood: Calcium (CA), Blood + Blood: Eosinophils + Blood: Globulin (G), Blood…) | LEL [8] | LEL [10] | LOAEL (developmental, duration: 9 days, M/F, Crl: CD BR, generation: F1, F1: Developmental: Uterus: Dead Fetuses + F1: Developmental: Uterus: Fetuses, Live + F1: General Toxicity: Whole Body: Body Weight, Fetal) | NEL (developmental, duration: 9 days, M/F, generation: F1, F1: Head: Head Abnormalities + F1: Whole Body: External Abnormalities + F1: Whole Body: Live Pups Born + F1: Whole Body: Skeletal …) | LOAEL (reproduction developmental, duration: 9 days, F, Crl: CD BR, generation: P0, P0: Developmental: Uterus: Implantation + P0: Developmental: Uterus: Resorptions, Early + P0: Developmental: Uterus: Resorptions, Total + P0…) | LOAEL [11] | NOAEL (reproduction developmental, duration: 9 days, F, Crl:CD BR, generation: P0, P0: Developmental: Uterus: Implantation + P0: Developmental: Uterus: Pre-Implantation Loss + P0: Reproductive: Ovary: Corpora Lutea) | LOAEL [13] | NEL (reproduction developmental, duration: 9 days, F, generation: P0, P0: Uterus: Implantation + P0: Uterus: Resorptions, Early + P0: Uterus: Resorptions, Total + P0: Whole Body: Maternal Body Weight Change + …) | NEL (reproduction developmental, duration: 9 days, F, generation: P0, P0: Uterus: Post-Implantation Loss + P0: Uterus: Pre-Implantation Loss + P0: Uterus: Resorptions, Mean/Litter + P0: Whole Body: Delivered …) | LEL [15] | LEL [16] | NEL (reproduction developmental, duration: 9 days, M/F, generation: P0, P0: Uterus: Fetuses, Dead + P0: Uterus: Fetuses, Live + P0: Whole Body: Body Weight, Fetal) | NEL (short-term, duration: 4 weeks, F, Adrenal: Adrenal Gland Weight, Absolute + Adrenal: Adrenal Gland Weight, Relative + Bladder: Urinary Bladder Calculus + Bladder: Urinary …) | NEL (short-term, duration: 4 weeks, M, Adrenal: Adrenal Gland Weight, Absolute + Adrenal: Adrenal Gland Weight, Relative + Blood: Abnormal Lymphocytes + Blood: Band Neutrophils + …) | LOAEL [17] | NEL (subchronic, duration: 90 days, F, Adrenal: Adrenal Gland Weight, Absolute + Adrenal: Adrenal Gland Weight, Relative + Blood: Hematology, Unspecified + Brain: Brain Weight, …) | LEL [19] | LOAEL [20] | NEL (subchronic, duration: 90 days, M, Adrenal: Adrenal Gland Weight, Absolute + Adrenal: Adrenal Gland Weight, Relative + Blood: Hematology, Unspecified + Brain: Brain Weight, …)
11200 mg/m3: LOAEL (chronic, duration: 2 years, F, Crl:CD BR, Hepatic: Blood: Globulin (G) + Hepatic: Liver: Alanine Aminotransferase (ALT) + Hepatic: Liver: Albumin (A) + Hepatic: Liver: Alkaline …) | LEL (chronic, duration: 2 years, F, Blood: Chloride (CL), Blood + Kidney: Creatine Kinase (CK), Blood + Kidney: Creatinine (CREAT), Blood) | NEL [2] | NEL [4] | LEL (chronic, duration: 2 years, F, Whole Body: Body Weight Change + Whole Body: Terminal Body Weight, Absolute) | LOAEL (chronic, duration: 2 years, M, Crl:CD BR, Hepatic: Blood: Globulin (G) + Hepatic: Liver: Alanine Aminotransferase (ALT) + Hepatic: Liver: Albumin (A) + Hepatic: Liver: Alkaline …) | LEL (chronic, duration: 2 years, M, Blood: Chloride (CL), Blood + Liver: Alanine Aminotransferase (ALT), Blood) | NEL [7] | NEL [9] | LEL (chronic, duration: 2 years, M, Liver: Liver Weight, Absolute + Spleen: Spleen Weight, Absolute)
